From PubChem BioAssay AID2060506 (Molecular Pharmacology Branch, DTP, NCI, 2025)

System: 598228-144-R-J1-PDC complex spheroid viability
Assay: Anticancer human tumor 598228-144-R-J1-PDC patient-derived serous endometrial adenocarcinoma cell line growth inhibition [GQUAD]
Conditions: for IC50: curve of first compound; for viability, T/C: stronger effect = lower value
Description: DNA G-quadruplex Stabilizer Agents in Combinations in Complex Spheroids
A high-throughput screen of multi-cell type tumor spheroids was designed to identify active combinations of DNA G-quadruplex stabilizer agents and targeted small molecules. Complex spheroids include a stromal component modeled by human endothelial cells (HUVEC) and fibroblasts modeled by human mesenchymal stem cells (MSCs). The concentration ranges selected for each drug and investigational agent were based upon clinically achievable concentrations if the clinical Cmax of the agent was known.
Compounds. The drugs and investigational agents: pidnarulex (CX-5461; NSC782164), APTO-253 (NSC789042), BRACO-19 (NSC847499), peposertib (NSC802822), ceralasertib (NSC780249), elimusertib (NSC800525), camonsertib (NSC841442), AZD-1390 (NSC803789), olaparib (NSC753686), talazoparib (NSC767125), ART-558 (NSC835418), sotorasib (NSC818433), MRTX-1133 (NSC836407), SN-38 (NSC673596), topotecan (NSC609699), etoposide (NSC141540), doxorubicin (NSC123127), gemcitabine (NSC613327), 5-fluorouracil (NSC19893), paclitaxel (NSC125973), vemurafenib (NSC761431), panobinostat (NSC761190), R-306465 (JNJ-16241199; NSC773264), adavosertib (NSC754352), TP-3654 (NSC805149), carboplatin (NSC241240), KSQ-4279 (NSC840948), and staurosporine (NSC755774) were obtained from the National Cancer Institute (NCI) Developmental Therapeutics Program Chemical Repository (34). The FDA-approved anticancer drug set is available from the NCI Developmental Therapeutics Program. […] The stock solutions were prepared in dimethyl sulfoxide (DMSO, Sigma-Aldrich, St. Louis, MO, cat. D2650) at 800-fold the tested concentration and stored at -70 degrees C prior to their use. All drugs and investigational agents were tested over a range starting from a high concentration at or near the clinical Cmax and decreasing in half-log increments. If the clinical Cmax for an agent had not been determined, the highest concentration tested was 10 microM.
2.3 Cell Culture. All cells were maintained in an incubator at 37 degrees C and 5% CO2 with 95% humidity. The PDC lines were cultured according to standard operating procedures established by the NCI PDMR. All PDCs were thawed and cultured in Matrigel-coated flasks prepared with a working solution of 1X Ham's F-12 nutrient mix, without supplementation (Invitrogen, cat. 11765054), 100 U/mL penicillin-streptomycin (Invitrogen, cat. 15140122), and 2.5% Matrigel (Corning Inc., cat. 354248) for the first three passages. The 857933-349-R-J2-PDC line was cultured in 6C/Colon 1B media, which includes advanced DMEM/F-12 (Thermo Fisher Scientific, cat. 12634028), 10 mM HEPES (Thermo Fisher Scientific, cat. 15630080), 1X GlutaMAX supplement (Thermo Fisher Scientific, cat. 35050061), 0.1 mg/mL primocin (InvivoGen, cat. ant-pm-2), 10% defined fetal bovine serum, heat inactivated (HyClone Laboratories Inc., cat. SH30070.03HI), 50% L-WRN conditioned media (ATCC, cat. CRL-3276), 1.25 mM N-Acetyl-L-cysteine (Sigma-Aldrich, cat. A9165), 10 mM nicotinamide (Sigma-Aldrich, cat. N0636), 1X B-27 supplement (Thermo Fisher Scientific, cat. 17504044), 1X N-2 supplement (Thermo Fisher Scientific, cat. 17502048), 10 microM Y-27632 dihydrochloride (Tocris Bioscience, cat. 1254), and 50 ng/mL human EGF recombinant protein (Thermo Fisher Scientific, cat. PHG0311). The 485176-168-R4-J1-PDC line was cultured in Panc media, which includes all 6C/Colon 1B media components plus 100 ng/mL human FGF-10 (Thermo Fisher Scientific, cat. 100-26), 500 nM SB-431542 (Selleckchem, cat. S1067), and gastrin (Tocris, cat. 3006).
[…]

[1] = second compound 0.0316 µM, first compound 0.0316 µM
[2] = second compound 0.0316 µM, first compound 0.1 µM
[3] = second compound 0.0316 µM, first compound 0.316 µM
[4] = second compound 0.0316 µM, first compound 1 µM
[5] = second compound 0.0316 µM, first compound 3.16 µM
[6] = second compound 0.0316 µM, first compound 10 µM
[7] = second compound 0.1 µM, first compound 0.0316 µM
[8] = second compound 0.1 µM, first compound 0.1 µM
[9] = second compound 0.1 µM, first compound 0.316 µM
[10] = second compound 0.1 µM, first compound 1 µM
[11] = second compound 0.1 µM, first compound 3.16 µM
[12] = second compound 0.1 µM, first compound 10 µM
[13] = second compound 0.316 µM, first compound 0.0316 µM
[14] = second compound 0.316 µM, first compound 0.1 µM
[15] = second compound 0.316 µM, first compound 0.316 µM
[16] = second compound 0.316 µM, first compound 1 µM
[17] = second compound 0.316 µM, first compound 3.16 µM
[18] = second compound 0.316 µM, first compound 10 µM
[19] = second compound 1 µM, first compound 0.0316 µM
[20] = second compound 1 µM, first compound 0.1 µM
[21] = second compound 1 µM, first compound 0.316 µM
[22] = second compound 1 µM, first compound 1 µM
[23] = second compound 1 µM, first compound 3.16 µM
[24] = second compound 1 µM, first compound 10 µM
[25] = second compound 3.16 µM, first compound 0.0316 µM
[26] = second compound 3.16 µM, first compound 0.1 µM
[27] = second compound 3.16 µM, first compound 0.316 µM
[28] = second compound 3.16 µM, first compound 1 µM
[29] = second compound 3.16 µM, first compound 3.16 µM
[30] = second compound 3.16 µM, first compound 10 µM
[31] = second compound 10 µM, first compound 0.0316 µM
[32] = second compound 10 µM, first compound 0.1 µM
[33] = second compound 10 µM, first compound 0.316 µM
[34] = second compound 10 µM, first compound 1 µM
[35] = second compound 10 µM, first compound 3.16 µM
[36] = second compound 10 µM, first compound 10 µM
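Also: spheroids exposed to the agents for one week before reading.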
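For viability, T/C in this document: percent of vehicle DMSO control viability so 100% = untreated growth.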

Cc1cccc(N(C)C(=O)C2C(O)CCN2c2nc(C)cc(C(F)(F)F)c2C#N)c1 (centres undefined) + Cc1cnc(CNC(=O)c2c(=O)c3ccc(N4CCCN(C)CC4)nc3n3c2sc2ccccc23)cn1
IC50 (second compound 0.0316 µM): > 10000 nM
IC50 (second compound 0.1 µM): > 10000 nM
IC50 (second compound 0.316 µM): > 10000 nM
IC50 (second compound 1 µM): > 10000 nM
IC50 (second compound 3.16 µM): > 10000 nM
IC50 (second compound 10 µM): < 31.6 nM
viability, T/C [1]: 92.7%
viability, T/C [2]: 83.7%
viability, T/C [3]: 91%
viability, T/C [4]: 99%
viability, T/C [5]: 112%
viability, T/C [6]: 91.4%
viability, T/C [7]: 76.8%
viability, T/C [8]: 69.3%
viability, T/C [9]: 64.4%
viability, T/C [10]: 67.9%
viability, T/C [11]: 86.6%
viability, T/C [12]: 66.5%
viability, T/C [13]: 63.2%
viability, T/C [14]: 66.6%
viability, T/C [15]: 70.3%
viability, T/C [16]: 63.6%
viability, T/C [17]: 61.3%
viability, T/C [18]: 60.2%
viability, T/C [19]: 68.9%
viability, T/C [20]: 62.5%
viability, T/C [21]: 58.7%
viability, T/C [22]: 61.9%
viability, T/C [23]: 58.3%
viability, T/C [24]: 60.5%
viability, T/C [25]: 52.4%
viability, T/C [26]: 58.3%
viability, T/C [27]: 57.9%
viability, T/C [28]: 44.3%
viability, T/C [29]: 58.7%
viability, T/C [30]: 50.5%
viability, T/C [31]: 55.8%
viability, T/C [32]: 45.7%
viability, T/C [33]: 37.8%
viability, T/C [34]: 46%
viability, T/C [35]: 66.1%
viability, T/C [36]: 36.2%

O=C(NO)c1cnc(N2CCN(S(=O)(=O)c3ccc4ccccc4c3)CC2)nc1 + Cc1cnc(CNC(=O)c2c(=O)c3ccc(N4CCCN(C)CC4)nc3n3c2sc2ccccc23)cn1
IC50 (second compound 0.0316 µM): 103 nM
IC50 (second compound 0.1 µM): 114 nM
IC50 (second compound 0.316 µM): 66.6 nM
IC50 (second compound 1 µM): 34.5 nM
IC50 (second compound 3.16 µM): < 31.6 nM
IC50 (second compound 10 µM): < 31.6 nM
viability, T/C [1]: 92.8%
viability, T/C [2]: 49.6%
viability, T/C [3]: 22.8%
viability, T/C [4]: 0.83%
viability, T/C [5]: 0.39%
viability, T/C [6]: 0.19%
viability, T/C [7]: 80.1%
viability, T/C [8]: 52%
viability, T/C [9]: 25.3%
viability, T/C [10]: 1.24%
viability, T/C [11]: 0.16%
viability, T/C [12]: 0.23%
viability, T/C [13]: 69.4%
viability, T/C [14]: 38.7%
viability, T/C [15]: 16.6%
viability, T/C [16]: 0.27%
viability, T/C [17]: 0.14%
viability, T/C [18]: 0.14%
viability, T/C [19]: 51.6%
viability, T/C [20]: 30.6%
viability, T/C [21]: 0.25%
viability, T/C [22]: 0.31%
viability, T/C [23]: 0.15%
viability, T/C [24]: 0.19%
viability, T/C [25]: 38.1%
viability, T/C [26]: 0.34%
viability, T/C [27]: 0.31%
viability, T/C [28]: 0.23%
viability, T/C [29]: 0.19%
viability, T/C [30]: 0.21%
viability, T/C [31]: 0.42%
viability, T/C [32]: 0.28%
viability, T/C [33]: 0.56%
viability, T/C [34]: 0.4%
viability, T/C [35]: 0.29%
viability, T/C [36]: 0.25%
